Results on 21 compounds are retold here after patent publication US8563730B2, “Pyrazole and fused pyrazole glucokinase activators” (Takeda San Diego, Inc., priority 2008, dated 2013).

For the assay, the target named is T1, GK (glucokinase, residues 12-465) (Homo sapiens, UniProt P35557).
T1 construct: I.D. No. 1 corresponds to residues 12-465 of glucokinase; made in house; host or cells: DH10b-T1r E. coli
T1 sequence (P35557 with tags, fused parts or gaps isoform P35557-2): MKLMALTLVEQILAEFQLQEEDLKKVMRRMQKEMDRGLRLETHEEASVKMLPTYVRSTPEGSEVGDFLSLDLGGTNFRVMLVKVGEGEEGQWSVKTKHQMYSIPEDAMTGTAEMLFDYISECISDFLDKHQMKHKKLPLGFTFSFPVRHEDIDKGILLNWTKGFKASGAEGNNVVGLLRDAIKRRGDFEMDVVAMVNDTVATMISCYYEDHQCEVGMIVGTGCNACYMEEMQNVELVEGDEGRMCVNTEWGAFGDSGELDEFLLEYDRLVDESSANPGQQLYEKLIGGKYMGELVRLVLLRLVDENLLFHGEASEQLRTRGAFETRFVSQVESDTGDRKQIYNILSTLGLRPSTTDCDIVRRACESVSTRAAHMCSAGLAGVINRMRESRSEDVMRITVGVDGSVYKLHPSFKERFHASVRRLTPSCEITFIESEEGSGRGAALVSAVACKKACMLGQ
Nature of the assay: enzymatic glucokinase activity assay (ATP consumption, KinaseGlo luminescence). It is filed as biochemical. The note with it: 5 μM ATP, 5 mM Glucose, reported as bins; for EC50: read-out: pKact. An excerpt:
The activity of compounds as glucokinase activators may be assayed in vitro, in vivo or in a cell line. Provided below is an enzymatic glucokinase activity assay.
Purified glucokinase may be obtained as follows. […] SEQ.
The expression of recombinant glucokinase protein may be carried out by transformation and growth of DH10b-T1r E. coli cells incorporating the (pFLAG-CTC) plasmid in LB media. Protein expression can be induced in this system by the addition of IPTG to the culture medium.
Recombinant protein may be isolated from cellular extracts by passage over Sepharose Q Fast Flow resin (Pharmacia). This partially purified GK extract may then be further purified by a second passage over Poros HQ10 (Applied Biosystems). The purity of GK may be determined on denaturing SDS-PAGE gel. Purified GK may then be concentrated to a final concentration of 20.0 mg/ml. After flash freezing in liquid nitrogen, the proteins can be stored at −78° C. in a buffer containing 25 mM TRIS-HCl pH 7.6, 50 mM NaCl, and 0.5 mM TCEP.
The activation properties of compounds for GK may be determined using a black 384-well-plate format under the following reaction conditions: 25 mM Hepes pH 7.2, 25 mM NaCl, 10 mM MgCl2, 0.01% Brij35, 1 mM DTT, 5 μM ATP, 5 mM Glucose 2% DMSO. The amount of ATP consumed may be determined quantitatively by addition of equal volume of luciferase reagent (luciferase+beetle luciferin—KinaseGlo Luminescent Kinase Assay kit from Promega). The luminescence intensity may be measured by using the Analyst HT from LJL Biosystems.
The reaction mixture may then be incubated at room temperature for 60 min, and quenched and developed by addition of 10 μL of luciferase reagent. Luminescence intensities of the resulting reaction mixtures may be measured after a 10 min incubation at room temperature. The luminescence intensity may be measured by using the Analyst HT from LJL Biosystems.
pKact and % ACTmax values may be calculated by non-linear curve fitting of the compound concentrations and luminescence intensities to a standard inhibition/activation equation.
In general terms: Kinase-Glo reads ATP consumption through a luciferase reaction.

Setting [1] is: Kact = concentration that displays 50% of the maximal increase in GK activity, 60 min, room temperature.
Where [2] appears, read: calculated maximal gain in GK enzyme activity at a saturating concentration of the compound, read-out: % ACTmax.
The mark [3] stands for this setting: read-out: % ACTmax, calculated maximal gain in GK enzyme activity at a saturating concentration of the compound.

Read-outs that look alike come from different tables or passages of the source.

Regarding `N#Cc1ccc(NC(=O)C(CC2CCOCC2)n2ncc3c(S(=O)(=O)C4CC4)cccc32)nc1` (stereo not drawn) [Compound 135, N-(5-cyanopyridin-2-yl)-2-(4-(cyclopropylsulfonyl)-1H-indazol-1-yl)-3-(tetrahydro-2H-pyran-4-yl)propanamide], the EC50 under setting [1] fell in the range of 398 to 1260 nM. The Emax under setting [2] was 106 to 110%.

As for `O=C(Nc1ncc(F)cc1F)C(CC1CCOCC1)n1ncc2c(S(=O)(=O)C3CC3)cccc21` (stereo not drawn) [Compound 88, 2-(4-(cyclopropylsulfonyl)-1H-indazol-1-yl)-N-(3,5-difluoropyridin-2-yl)-3-(tetrahydro-2H-pyran-4-yl)propanamide], under setting [1], the EC50 is at least 15800 nM. For the same compound, the Emax under setting [2] is at most 90%.

For the compound `O=C(Nc1cnccn1)C(CC1CCOCC1)n1cc2c(S(=O)(=O)C3CC3)c(F)ccc2n1` (stereo not drawn) [Compound 156, 2-(4-(cyclopropylsulfonyl)-5-fluoro-2H-indazol-2-yl)-N-(pyrazin-2-yl)-3-(tetrahydro-2H-pyran-4-yl)proanamide], the EC50 under setting [1] was at most 316 nM. In addition, the Emax under setting [2] was 101 to 105%.

For `Cn1ccc(NC(=O)C(CC2CCOCC2)n2ncc3c(S(=O)(=O)C4CC4)cc(N)nc32)n1` (stereo not drawn) [Compound 170, 2-(6-amino-4-(cyclopropylsulfonyl)-1H-pyrazolo[3,4-b]pyridin-1-yl)-N-(1-methyl-1H-pyrazol-3-yl)-3-(tetrahydro-2H-pyran-4-yl)propanamide], the EC50 under setting [1] is at least 15800 nM. Also, under setting [2], the Emax is at most 90%.

As for `O=C(Nc1cnccn1)[C@@H](CC1CCOCC1)n1ncc2c(S(=O)(=O)C3CC3)ccnc21` [Compound 161, (R)-2-(4-(cyclopropylsulfonyl)-1H-pyrazolo[3,4-b]pyridin-1-yl)-N-(pyrazin-2-yl)-3-(tetrahydro-2H-pyran-4-yl)propanamide], under setting [1], the EC50 was at least 15800 nM. Further, the Emax under setting [2] is at most 90%.

For `COc1ccc2c(cnn2[C@H](CC2CCOCC2)C(=O)Nc2ncc(F)s2)c1S(=O)(=O)C1CC1` [Compound 81, (R)-2-(4-(cyclopropylsulfonyl)-5-methoxy-1H-indazol-1-yl)-N-(5-fluorothiazol-2-yl)-3-(tetrahydro-2H-pyran-4-yl)propanamide], the EC50 under setting [1] was 3980 to 12600 nM. Besides, under setting [2], the Emax is 101 to 105%.

Take `Cc1ccc2c(cnn2C(CC2CCOCC2)C(=O)Nc2cnccn2)c1S(=O)(=O)C1CC1` (stereo not drawn) [Compound 157, 2-(4-(cyclopropylsulfonyl)-5-methyl-1H-indazol-1-yl)-N-(pyrazin-2-yl)-3-(tetrahydro-2H-pyran-4-yl)propanamide]: under setting [1], the EC50 is 398 to 1260 nM. Also, the Emax under setting [2] is at least 111%.

For `N#Cc1cnc(NC(=O)[C@H](CC2CCOCC2)n2ncc3c(S(=O)(=O)C4CC4)cccc32)s1` [Compound 136, (S)-N-(5-cyanothiazol-2-yl)-2-(4-(cyclopropylsulfonyl)-1H-indazol-1-yl)-3-(tetrahydro-2H-pyran-4-yl)propanamide], the EC50 under setting [1] lay within 398 to 1260 nM. For the same compound, under setting [2], the Emax is at least 111%.

Regarding `O=C(Nc1cnccn1)C(CC1CCCC1)n1ncc2c(S(=O)(=O)C3CC3)cccc21` (stereo not drawn) [Compound 61, 3-cyclopentyl-2-(4-(cyclopropylsulfonyl)-1H-indazol-1-yl)-N-(pyrazin-2-yl)propanamide], the EC50 under setting [1] was 398 to 1260 nM. In addition, the Emax under setting [2] is 90 to 100%.

Consider `Nc1cc(S(=O)(=O)C2CC2)c2cnn(C(CC3CCOCC3)C(=O)Nc3ncc(F)s3)c2n1` (stereo not drawn) [Compound 16, 2-(6-amino-4-(cyclopropylsulfonyl)-1H-pyrazolo[3,4-b]pyridin-1-yl)-N-(5-fluorothiazol-2-yl)-3-(tetrahydro-2H-pyran-4-yl)propanamide], for which, under setting [1], the EC50 was at most 316 nM. Besides, the Emax under setting [3] is 106 to 110%.

Turning to `O=C(Nc1ncc(Cl)s1)C(CC1CCOCC1)n1cc2c(S(=O)(=O)C3CC3)cccc2n1` (stereo not drawn) [Compound 70, N-(5-chlorothiazol-2-yl)-2-(4-(cyclopropylsulfonyl)-2H-indazol-2-yl)-3-(tetrahydro-2H-pyran-4-yl)propanamide], under setting [1], the EC50 was in the range of 1580 to 3160 nM. Moreover, the Emax under setting [2] is 101 to 105%.

On to `O=C(Nc1ncc(F)s1)C(CC1CCOCC1)n1ncc2c(S(=O)(=O)C3CC3)ccc(Cl)c21` (stereo not drawn) [Compound 23, 2-(7-chloro-4-(cyclopropylsulfonyl)-1H-indazol-1-yl)-N-(5-flourothiazol-2-yl)-3-(tetrahydro-2H-pyran-4-yl)propanamide], for which the pKact entry under setting [1] is on record as “≧6.5”. Under “calculated maximal gain in GK enzyme activity at a saturating concentration of the compound”, the “% ACTmax” value is recorded as “≧111%”.

Regarding `O=C(Nc1ncc(F)s1)[C@H](CC1CCOCC1)n1ncc2c(S(=O)(=O)C3CC3)ccnc21` [Compound 138, (S)-2-(4-(cyclopropylsulfonyl)-1H-pyrazol[3,4-b]pyridin-1-yl)-N-(5-fluorothiazol-2-yl)-3-(tetrahydro-2H-pyran-4-yl)propanamide], the EC50 under setting [1] lay within 398 to 1260 nM. Under setting [2], the Emax was 90 to 100%.

As to `Cn1ccc(NC(=O)C(CC2CCOCC2)n2cc3c(S(=O)(=O)C4CC4)c(F)ccc3n2)n1` (stereo not drawn) [Compound 153, 2-(4-(cyclopropylsulfonyl)-5-fluoro-2H-indazol-2-yl)-N-(1-methyl-1H-pyrazol-3-yl)-3-(tetrahydro-2H-pyran-4-yl)propanamide], under setting [1], the EC50 was at least 15800 nM. Moreover, the Emax under setting [2] is 106 to 110%.

With `Cc1cc(NC(=O)C(CC2CCOCC2)n2ncc3c(S(=O)(=O)C4CC4)cccc32)nn1C` (stereo not drawn) [Compound 134, 2-(4-(cyclopropylsulfonyl)-1H-indazol-1-yl)-N-(1,5-dimethyl-1H-pyrazol-3-yl)-3-(tetrahydro-2H-pyran-4-yl)propanamide], under setting [1], the EC50 lay within 1580 to 3160 nM. Besides, the Emax under setting [2] was at least 111%.

On to `COc1ccc2c(cnn2C(CC2CCOCC2)C(=O)Nc2cnccn2)c1S(=O)(=O)C1CC1` (stereo not drawn) [Compound 91, 2-(4-(cyclopropylsulfonyl)-5-methoxy-1H-indazol-1-yl)-N-(pyrazin-2-yl)-3-(tetrahydro-2H-pyran-4-yl)propanamide], for which, under setting [1], the EC50 is 398 to 1260 nM. Besides, the Emax under setting [2] was 101 to 105%.

Regarding `O=C(Nc1ncc(F)s1)[C@H](CC1CCOCC1)n1cc(S(=O)(=O)C2CC2)cn1` [Compound 32, (S)-2-(4-(cyclopropylsulfonyl)-1H-pyrazol-1-yl)-N-(5-fluorothiazol-2-yl)-3-(tetrahydro-2H-pyran-4-yl)propanamide], the EC50 under setting [1] is 3980 to 12600 nM. For the same compound, under setting [2], the Emax was 101 to 105%.

Consider `O=C(Nc1ncc(Cl)s1)[C@H](CC1CCOCC1)n1ncc2c(S(=O)(=O)C3CC3)cccc21` [Compound 64, (S)-N-(5-chlorothiazol-2-yl)-2-(4-(cyclopropylsulfonyl)-1H-indazol-1-yl)-3-(tetrahydro-2H-pyran-4-yl)propanamide], for which the EC50 under setting [1] is at most 316 nM. Moreover, under setting [2], the Emax is at least 111%.

In the case of `O=C(Nc1ncc(Cl)s1)C(CC1CCOCC1)n1ncc2c(S(=O)(=O)C3CC3)cccc21` (stereo not drawn) [Compound 59, N-(5-chlorothiazol-2-yl)-2-(4-(cyclopropylsulfonyl)-1H-indazol-1-yl)-3-(tetrahydro-2H-pyran-4-yl)propanamide], the EC50 under setting [1] was at most 316 nM. Moreover, the Emax under setting [2] is 106 to 110%.

On to `O=C(Nc1ncc(F)s1)[C@@H](CC1CCOCC1)n1ncc2c(S(=O)(=O)C3CC3)cncc21` [Compound 85, (R)-2-(4-(cyclopropylsulfonyl)-1H-pyrazolo[3,4-c]pyridin-1-yl)-N-(5-fluorothiazol-2-yl)-3-(tetrahydro-2H-pyran-4-yl)propanamide], for which, under setting [1], the EC50 was in the range of 1580 to 3160 nM. Moreover, the Emax under setting [3] was 90 to 100%.

With `CC(C)(C)S(=O)(=O)c1cnn([C@H](CC2CCOCC2)C(=O)Nc2ncc(F)s2)c1` [Compound 52, (R)-2-(4-(tert-butylsulfonyl)-1H-pyrazol-1-yl)-N-(5-fluorothiazol-2-yl)-3-(tetrahydro-2H-pyran-4-yl)propanamide], under setting [1], the EC50 was at least 15800 nM. Besides, the Emax under setting [2] was 90 to 100%.
